Values joined by “and” are separate entries in the source; they are usually repeats but may differ in a detail not shown here. Equal entries are not always repeated. ± gives the expanded uncertainty stated by the source.
Details: Liquid; for vapor or sublimation pressure: Closed cell (Static) method; for mass density: determined from pressure vs temperature measurement to find liquid-full point for a closed cell

CO[Si](OC)(OC)OC [silicon tetramethoxide]
Details | mass density | vapor or sublimation pressure
334.15 K | 990 ± 60 kg/m3 | 30 ± 15 kPa
335.15 K | – | 30 ± 15 kPa
336.15 K | – | 30 ± 15 kPa
337.15 K | – | 30 ± 15 kPa
338.15 K | – | 30 ± 15 kPa
339.15 K | – | 30 ± 15 kPa
341.15 K | – | 30 ± 15 kPa
342.15 K | – | 30 ± 17 kPa
343.15 K | – | 30 ± 13 kPa
344.15 K | – | 30 ± 17 kPa
345.15 K | – | 40 ± 17 kPa
347.15 K | – | 40 ± 14 kPa
348.15 K | 940 ± 60 kg/m3 | 40 ± 20 kPa
349.15 K | – | 40 ± 20 kPa
351.15 K | – | 40 ± 20 kPa
352.15 K | – | 40 ± 20 kPa
353.15 K | – | 40 ± 20 kPa
355.15 K | – | 40 ± 17 kPa
356.15 K | – | 40 ± 17 kPa
357.15 K | – | 50 ± 13 kPa
358.15 K | – | 50 ± 17 kPa
359.15 K | – | 50 ± 17 kPa
361.15 K | – | 50 ± 25 kPa
362.15 K | – | 50 ± 25 kPa
363.15 K | – | 50 ± 14 kPa
364.15 K | – | 50 ± 16 kPa
365.15 K | 920 ± 60 kg/m3 | 50 ± 17 kPa
366.15 K | – | 60 ± 18 kPa
368.15 K | – | 60 ± 18 kPa
369.15 K | – | 60 ± 31 kPa
370.15 K | – | 60 ± 15 kPa
371.15 K | – | 60 ± 18 kPa
372.15 K | – | 60 ± 18 kPa
373.1 K | – | 70 ± 15 kPa
374.15 K | – | 70 ± 18 kPa
375.15 K | – | 70 ± 34 kPa
377.15 K | – | 70 ± 18 kPa
378.15 K | – | 80 ± 18 kPa
379.15 K | – | 80 ± 29 kPa
380.15 K | – | 80 ± 29 kPa
381.15 K | – | 80 ± 18 kPa
382.15 K | – | 90 ± 19 kPa
383.15 K | 900 ± 50 kg/m3 | –
384.15 K | – | 90 ± 35 kPa
385.15 K | – | 90 ± 19 kPa
386.15 K | – | 90 ± 15 kPa
387.15 K | – | 100 ± 19 kPa
388.15 K | – | 100 ± 35 kPa
389.15 K | 880 ± 50 kg/m3 | –
390.15 K | – | 100 ± 19 kPa
391.15 K | – | 110 ± 35 kPa
392.15 K | – | 110 ± 30 kPa
393.15 K | – | 110 ± 45 kPa
394.15 K | – | 120 ± 35 kPa
395.15 K | – | 120 ± 35 kPa
397.15 K | – | 130 ± 36 kPa
398.15 K | – | 130 ± 36 kPa
399.15 K | – | 130 ± 40 kPa
400.15 K | – | 140 ± 36 kPa
401.15 K | – | 140 ± 36 kPa
403.15 K | – | 150 ± 37 kPa
404.15 K | – | 150 ± 52 kPa
405.15 K | – | 160 ± 46 kPa
406.15 K | 850 ± 50 kg/m3 | 160 ± 52 kPa
407.15 K | – | 170 ± 45 kPa
408.15 K | – | 170 ± 37 kPa
409.15 K | – | 180 ± 53 kPa
411.15 K | – | 180 ± 53 kPa
412.15 K | – | 190 ± 38 kPa
413.15 K | – | 190 ± 42 kPa
414.15 K | – | 200 ± 54 kPa
415.15 K | 840 ± 50 kg/m3 | 200 ± 54 kPa
417.15 K | – | 210 ± 54 kPa
418.15 K | – | 220 ± 55 kPa
419.15 K | – | 220 ± 61 kPa
420.15 K | – | 230 ± 61 kPa
421.15 K | – | 230 ± 55 kPa
422.15 K | – | 240 ± 71 kPa
424.15 K | – | 250 ± 71 kPa
425.15 K | – | 260 ± 71 kPa
426.15 K | – | 260 ± 62 kPa
427.15 K | – | 270 ± 72 kPa
428.15 K | – | 280 ± 63 kPa
429.15 K | – | 280 ± 72 kPa
430.15 K | – | 290 ± 73 kPa
432.15 K | – | 300 ± 73 kPa
433.15 K | – | 310 ± 73 kPa
434.15 K | 800 ± 50 kg/m3 | 320 ± 78 kPa
435.15 K | – | 320 ± 78 kPa
436.15 K | – | 330 ± 74 kPa
437.15 K | – | 340 ± 75 kPa
439.15 K | – | 350 ± 75 kPa
440.15 K | 800 ± 50 kg/m3 | 360 ± 76 kPa
441.15 K | – | 360 ± 79 kPa
442.15 K | – | 370 ± 91 kPa
443.15 K | – | 380 ± 81 kPa
444.15 K | – | 390 ± 92 kPa
445.15 K | – | 400 ± 78 kPa
447.15 K | – | 410 ± 78 kPa
448.15 K | – | 410 ± 78 kPa
449.15 K | – | 420 ± 82 kPa
450.15 K | – | 430 ± 94 kPa
451.15 K | – | 440 ± 110 kPa
452.15 K | – | 450 ± 96 kPa
453.15 K | – | 460 ± 95 kPa
454.15 K | – | 470 ± 95 kPa
456.15 K | – | 480 ± 96 kPa
457.15 K | – | 490 ± 96 kPa
458.15 K | – | 500 ± 98 kPa
459.15 K | – | 510 ± 130 kPa
460.15 K | – | 520 ± 130 kPa
461.15 K | – | 530 ± 110 kPa
462.15 K | – | 550 ± 110 kPa
463.15 K | 750 ± 50 kg/m3 and 770 ± 50 kg/m3 | 560 ± 110 kPa
465.15 K | – | 570 ± 120 kPa
466.15 K | – | 580 ± 120 kPa
467.15 K | – | 590 ± 120 kPa
468.15 K | – | 610 ± 150 kPa
469.15 K | – | 620 ± 150 kPa
470.15 K | – | 630 ± 130 kPa
471.15 K | – | 650 ± 120 kPa
472.15 K | – | 660 ± 130 kPa
474.15 K | – | 670 ± 130 kPa
475.15 K | – | 690 ± 140 kPa
476.15 K | – | 700 ± 140 kPa
477.15 K | – | 720 ± 170 kPa
478.15 K | – | 730 ± 170 kPa
479.15 K | – | 750 ± 170 kPa
480.15 K | 710 ± 40 kg/m3 | 760 ± 170 kPa
481.15 K | – | 780 ± 150 kPa
482.15 K | – | 790 ± 140 kPa
483.15 K | 730 ± 50 kg/m3 | 810 ± 160 kPa
485.15 K | – | 820 ± 160 kPa
486.15 K | – | 840 ± 160 kPa
487.15 K | – | 860 ± 160 kPa
488.15 K | – | 870 ± 190 kPa
489.15 K | – | 890 ± 190 kPa
490.15 K | – | 910 ± 190 kPa
491.15 K | – | 920 ± 200 kPa
492.15 K | – | 940 ± 210 kPa
493.15 K | – | 960 ± 170 kPa
494.15 K | – | 980 ± 180 kPa
495.15 K | – | 1000 ± 180 kPa
497.15 K | – | 1010 ± 180 kPa
498.15 K | – | 1030 ± 180 kPa
499.15 K | – | 1050 ± 190 kPa
500.15 K | – | 1070 ± 230 kPa
501.15 K | – | 1090 ± 230 kPa
502.15 K | 690 ± 40 kg/m3 | 1110 ± 210 kPa
503.15 K | – | 1130 ± 220 kPa
504.15 K | – | 1150 ± 220 kPa
505.15 K | – | 1160 ± 220 kPa
506.15 K | – | 1180 ± 230 kPa
507.15 K | – | 1200 ± 230 kPa
508.15 K | – | 1220 ± 210 kPa
509.15 K | – | 1250 ± 210 kPa
510.15 K | – | 1270 ± 210 kPa
512.15 K | – | 1280 ± 200 kPa
513.15 K | – | 1300 ± 200 kPa
514.15 K | – | 1320 ± 200 kPa and 1340 ± 210 kPa
516.15 K | – | 1360 ± 240 kPa
517.15 K | – | 1380 ± 240 kPa
518.15 K | – | 1400 ± 240 kPa
519.15 K | 650 ± 40 kg/m3 | 1420 ± 240 kPa
520.15 K | – | 1440 ± 250 kPa
521.15 K | – | 1460 ± 250 kPa
522.15 K | – | 1480 ± 250 kPa
532.15 K | 610 ± 40 kg/m3 | –

— the NIST ThermoML archive (doi:10.1021/je700443d)
